# Measurements as given in patent US9873693B2 (Sunesis Pharmaceuticals, Inc., priority 2006, dated 2018).
# Read-outs that look alike come from different tables or passages of the source.
# Key:
# phosphorylated PDK1 = phosphorylated PDK1 (Homo sapiens (Human), UniProt O15530); assay: PDK1 kinase assay (coupled PDK1/AKT/FAM-crosstide, IMAP); type: biochemical; conditions: 0.5 nM phosphorylated PDK1, 24 μM ATP; read-out: Inhibition of phospo-PDK1 in vitro IC50
# dephosphorylated PDK1 = dephosphorylated PDK1 (Homo sapiens (Human), UniProt O15530); assay: as above; type: biochemical; conditions: 25 nM un-phosphorylated PDK1, 24 μM ATP; read-out: Inhibition of dephospo-PDK1 in vitro IC50
# Procedure: A PDK1 kinase assay was performed as follows. PDK1 (amino acids 51-360) and AKT2 (amino acids 140-467 fused to PIFtide, amino acids […]) were expressed as N-terminally tagged GST fusion proteins in insect cells and purified to greater than 90% homogeneity. PDK1 protein was divided into two fractions, one of which was subsequently dephosphorylated. To generate dephosphorylated PDK1, the PDK1 was reacted with GST-tagged lambda-phosphatase in vitro. GST was subsequently cleaved proteolytically for both phosphorylated and dephosphorylated PDK1. Protein preparations were run on glutathione Sepharose columns to remove GST and GST-tagged lambda-phosphatase, if present. Phosphorylated PDK1 and dephosphorylated PDK1 were verified by mass-spectrometry. Enzyme activity was determined in a coupled PDK1/AKT/FAM-crosstide assay using either phosphorylated or unphosphorylated PDK1 and phosphorylation of FAM-crosstide was determined by standard IMAP protocol (Molecular Devices). For inhibition studies, compounds were titrated 3-fold in DMSO and diluted 40-fold into assay buffer (10 mM Tris HCl pH7.2; 10 mM MgCl2; 0.01% Triton X-100; 1 mM DTT) containing PDK1, AKT2, and FAM-crosstide. (final concentrations: 25 nM un-phosphorylated PDK1 or 0.5 nM phosphorylated PDK1, 30 nM unphosphorylated AKT2, and 100 nM crosstide substrate). The kinase reaction was initiated by adding ATP to a final concentration of 24 μM for both forms of PDK1 and incubated at 25° C. for 30 min. To detect assay product, the kinase reaction was combined with Progressive Binding Solution (1:600 Progressive Binding Reagent, 50% Buffer A, 50% Buffer B, Molecular Devices) in a 1:3 ratio. The mixture was incubated for 2 hours at 25° C. and the plate was scanned on an Analyst AD with excitation at 485 nm and emission at 530 nm. The fluorescence polarization value “P” is defined by the equation below. The value “mP” is generated by multiplying the P value for each reaction well by a factor of 1000. The value “ΔmP” for each well is the mP value for that well minus the mP value for the average negative control. P=(Fpar−Fperp)/(Fpar+Fperp) Eq.:
# Where “par” is fluorescence intensity parallel to the excitation plane; and “perp” is fluorescence intensity perpendicular to the excitation plane. ΔmP values were plotted as a function of compound concentration and the data were analyzed with a 4-parameter fit using GraphPad Prism software.
# phospho-akt (Thr308) = phospho-akt (Thr308) MSD ELISA in PC-3 cells; type: cell-based; conditions: Homo sapiens; for EC50: PC-3, 2 h; for inhibition at 1 µM / inhibition at 10 µM: read-out: Percent Inhibition of phospho-Akt (308) By MSD ELISA
# Procedure, shortened: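 Read-out is MSD electrochemiluminescence after lysate capture overnight at 4 degrees and 1 hr RT detection-antibody step. Before lysis, overnight-plated PC-3 cells received three-fold serial dilutions of inhibitor in serum-free medium, with DMSO-only high controls.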
# [1] = PC-3 cells, 2 hours, no serum, read-out: Inhibition of P308 Akt in cells using MSD EC50
# [2] = PC-3 cells, 2 hours, no serum, read-out: Reduction of Cellular Levels of Akt p308 By MSD ELISA (EC50 μM)
# Chain of dephosphorylated PDK1 (O15530 51-360): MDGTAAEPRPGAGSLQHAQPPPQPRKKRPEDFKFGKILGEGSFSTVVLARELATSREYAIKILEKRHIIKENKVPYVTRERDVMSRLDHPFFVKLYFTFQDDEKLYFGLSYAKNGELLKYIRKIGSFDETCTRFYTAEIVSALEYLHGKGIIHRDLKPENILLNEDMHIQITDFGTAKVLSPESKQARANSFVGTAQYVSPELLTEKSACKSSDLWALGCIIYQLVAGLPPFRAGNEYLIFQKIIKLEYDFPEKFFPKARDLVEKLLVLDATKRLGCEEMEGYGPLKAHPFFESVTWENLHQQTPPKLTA
# Chain of phosphorylated PDK1 (O15530 51-360): as above
smiles,measurement,setting,value
O=C(O)C[C@@H](NC(=O)c1cccn(Cc2ccc(F)c(F)c2)c1=O)c1ccc(-c2c[nH]c3ncccc23)s1 [Cpd 15],IC50,phosphorylated PDK1,< 500 nM
same,IC50,dephosphorylated PDK1,< 500 nM
same,EC50,phospho-akt (Thr308); read-out: Reduction of Cellular Levels of Akt p308 By MSD ELISA (EC50 μM),> 5 µM
O=C(NCc1cccc(-c2c[nH]c3cnccc23)c1)c1cccn(Cc2ccc(F)c(F)c2)c1=O [Cpd 242],IC50,phosphorylated PDK1,500 to 10000 nM
same,IC50,dephosphorylated PDK1,< 500 nM
same,inhibition at 1 µM,phospho-akt (Thr308); PC-3 cells,< 25%
same,inhibition at 10 µM,phospho-akt (Thr308); PC-3 cells,> 75%
CNc1nc(-c2cccc(CNC(=O)c3cccn(Cc4ccc(F)c(F)c4)c3=O)c2)cn2ccnc12 [Cpd 326],IC50,phosphorylated PDK1,500 to 10000 nM
same,IC50,dephosphorylated PDK1,500 to 10000 nM
same,EC50,phospho-akt (Thr308); [1],> 5 µM
O=C(N[C@H](COc1ccc2[nH]c(=O)[nH]c2c1)c1ccc(F)cc1)c1cccn(Cc2ccc(C(F)(F)F)cc2)c1=O [Cpd 148],IC50,phosphorylated PDK1,< 500 nM
same,IC50,dephosphorylated PDK1,< 500 nM
same,EC50,phospho-akt (Thr308); [1],1 to 5 µM
same,EC50,phospho-akt (Thr308); [2],1 to 5 µM
O=C(NCc1noc(-c2c[nH]c3ncccc23)n1)c1cccn(Cc2ccc(C(F)(F)F)cc2)c1=O [Cpd 143],IC50,phosphorylated PDK1,< 500 nM
same,IC50,dephosphorylated PDK1,< 500 nM
same,EC50,phospho-akt (Thr308); [1],> 5 µM
same,EC50,phospho-akt (Thr308); [2],> 5 µM
O=C(NCc1csc(-c2c[nH]c3ncccc23)n1)c1cccn(Cc2ccc(F)c(F)c2)c1=O [Cpd 121],IC50,phosphorylated PDK1,< 500 nM
same,IC50,dephosphorylated PDK1,< 500 nM
same,EC50,phospho-akt (Thr308); [1],< 1 µM
O=C1Cc2ccc(/C=C/CNC(=O)c3cc(Cl)cn(Cc4cc(F)c(F)c(F)c4)c3=O)cc2N1 [Cpd 193],IC50,phosphorylated PDK1,< 500 nM
same,IC50,dephosphorylated PDK1,< 500 nM
same,EC50,phospho-akt (Thr308); read-out: Inhibition of P308 Akt in cells using MSD EC50,> 5 µM
Nc1cc(C(=O)NCc2noc(-c3c[nH]c4ncccc34)n2)c(=O)n(Cc2cc(F)c(F)c(F)c2)c1 [Cpd 187],IC50,phosphorylated PDK1,< 500 nM
same,IC50,dephosphorylated PDK1,< 500 nM
same,EC50,phospho-akt (Thr308); [1],> 5 µM
O=C(c1cccn(Cc2ccc(F)c(F)c2)c1=O)N1CCc2ccc(-c3c[nH]c4ncccc34)cc2C1 [Cpd 232],IC50,phosphorylated PDK1,500 to 10000 nM
same,IC50,dephosphorylated PDK1,500 to 10000 nM
same,EC50,phospho-akt (Thr308); [1],> 5 µM
CCC[C@H](COc1ccc2[nH]c(=O)[nH]c2c1)NC(=O)c1cccn(Cc2ccc(F)c(F)c2)c1=O [Cpd 322],IC50,phosphorylated PDK1,< 500 nM
same,IC50,dephosphorylated PDK1,< 500 nM
same,EC50,phospho-akt (Thr308); [1],1 to 5 µM
same,EC50,phospho-akt (Thr308); [2],1 to 5 µM
COC(=O)C[C@@H](NC(=O)c1cccn(Cc2ccc(F)c(F)c2)c1=O)c1ccc(-c2c[nH]c3ncccc23)s1 [Cpd 236],IC50,phosphorylated PDK1,500 to 10000 nM
same,IC50,dephosphorylated PDK1,< 500 nM
same,EC50,phospho-akt (Thr308); [2],> 5 µM
Cc1ccc(Cn2cccc(C(=O)NCc3noc(-c4c[nH]c5ncccc45)n3)c2=O)cc1Cl [Cpd 317],IC50,phosphorylated PDK1,< 500 nM
same,IC50,dephosphorylated PDK1,< 500 nM
same,EC50,phospho-akt (Thr308); [1],> 5 µM
same,inhibition at 1 µM,phospho-akt (Thr308); PC-3 cells,25 to 75%
same,inhibition at 10 µM,phospho-akt (Thr308); PC-3 cells,> 75%
CCc1ccnc(NCCC#CCCNC(=O)c2cc(Cl)cn(Cc3cccc(Cl)c3)c2=O)n1 [Cpd 257],IC50,phosphorylated PDK1,< 500 nM
same,IC50,dephosphorylated PDK1,< 500 nM
O=C(NCc1cc(-c2c[nH]c3ncccc23)[nH]n1)c1cccn(Cc2ccc(F)c(F)c2)c1=O [Cpd 142],IC50,phosphorylated PDK1,< 500 nM
same,IC50,dephosphorylated PDK1,< 500 nM
O=C(NC1(c2nnc(-c3c[nH]c4ncccc34)o2)CC1)c1cccn(Cc2ccc(F)c(F)c2)c1=O [Cpd 281],IC50,phosphorylated PDK1,< 500 nM
same,IC50,dephosphorylated PDK1,< 500 nM
COc1ccnc(NCCC#CCCNC(=O)c2cccn([C@H](C)c3ccc(Cl)cc3)c2=O)n1 [Cpd 259],IC50,phosphorylated PDK1,< 500 nM
same,IC50,dephosphorylated PDK1,< 500 nM
CC(=O)Nc1cc(NCCCCCNC(=O)c2cccn(Cc3cccc(Cl)c3)c2=O)ncn1 [Cpd 99],IC50,phosphorylated PDK1,> 10000 nM
same,IC50,dephosphorylated PDK1,500 to 10000 nM
O=C(NCc1nc(-c2c[nH]c3ncccc23)cs1)c1cccn(Cc2cccc(Cl)c2)c1=O [Cpd 272],IC50,phosphorylated PDK1,< 500 nM
same,IC50,dephosphorylated PDK1,< 500 nM
Nc1ncnc2[nH]nc(-c3cccc(CNC(=O)c4cccn(Cc5ccc(F)c(F)c5)c4=O)c3)c12 [Cpd 5],IC50,phosphorylated PDK1,< 500 nM
same,IC50,dephosphorylated PDK1,< 500 nM
